Data reported in US8486962B2, “Antifungal agents” (F2G Ltd., priority 2005, dated 2013).
Values after ≈ are worked out from the molar mass of the structure shown. Read-outs that look alike come from different tables or passages of the source.

Legend:
Assay type in all cases: cell-based
Aspergillus flavus = assay: MIC, YAG medium, Aspergillus flavus; details: YAG medium; for MIC: Aspergillus flavus
Method: (§1) Measurement of Minimum Inhibitory Concentrations (MICs)
(§2) Between 1 and 5 mgs of compound were accurately weighed out into a sterile Eppendorf tube. The compound was dissolved in DMSO to give a solution containing 5 mg/ml. Tubes were stored at −20° C. until required.
(§3) On the day of testing thawed solutions were vortex mixed to ensure homogeneity. 30 μl of solution was removed and added to 570 μl of sterile water in a separate sterile Eppendorf. The thoroughly mixed solution was used to prepare a series of doubling dilutions in water, in a deep well plate. Eleven replicate plates were prepared using a Minitrak by aspirating 20 μl from each well into eleven clear polystyrene 96 well plates.
(§4) Spores of Aspergillus spp (Aspergillus fumigatus, Aspergillus terreus, Aspergillus niger and Aspergillus flavus) were harvested from cultures grown on Sabarauds agar for 5 days, and resuspended in PBS/Tween 80 to approx 1×10^7 cfu/ml Other filamentous fungi (Fusarium solani, Scedosporium spp., Trichophyton spp., Absidia corymbifera), were grown on Sabarauds agar for 2-10 days and spores/hyphae resuspended in PBS/Tween to give approx 1×10^7 cfU/ml. Candida species (Candida albicans, Candida glabrata, Candida krusei, Candida parapsilosis and Candida tropicalis) were grown on Sabarauds agar, cells were harvested from the agar using a sterile loop and resuspended in PBS/Tween 80 to approx 1×10^6 cfu/ml. Each organism suspension was diluted in RPMI medium, containing 2% glucose and 0.135M MOPS buffer (pH7.0) to 2×10^4 cfu/ml for Aspergillus spp and other filamentous fungi and 2×10^3 cfu/ml for yeast. 80 μl of an organism suspension was added to each well of the plate containing drug dilutions.
(§5) This produced MIC plates with a drug range 50-0.05 mg/L and organism inocula of 1-2×10^4 cfu/ml for Aspergillus spp and other filamentous fungi and 1-2×10^3 cfu/ml for yeasts. All plates were incubated for 24-48 hrs at 35° C. Growth was assessed by monitoring the optical density at 485 nm for each well. The MIC of a compound is the lowest drug concentration that inhibits growth of an organism by >80% compared with a drug free control. MICs are recorded as mg/L. Other growth media can be used for susceptibility testing, and the activity of the described compounds can also be assessed in a medium comprising, 1% glucose, 1% ammonium chloride and 0.5% yeast extract (YAG medium). To perform MIC tests in this medium, dilutions of compounds are prepared in microtitre plates as described above. Fungal strains to be tested are grown and harvested in an identical manner to that described above, each organism suspension is then diluted in YAG medium to 2×10^4 cfu/ml for Aspergillus spp and other filamentous fungi and 2×10^3 cfu/ml for yeast. 80 μl of an organism suspension was added to each well of the plate containing drug dilutions. This produced MIC plates with a drug range 50-0.05 mg/L and organism inocula of 1-2×10^4 cfu/ml for Aspergillus spp and other filamentous fungi and 1-2×10^3 cfu/ml for yeasts. All plates were incubated for 24 hrs at 35° C. Growth was assessed by monitoring the optical density at 485 nm for each well. The MIC of a compound is the lowest drug concentration that inhibits growth of an organism by >70% compared with a drug free control. MICs are recorded as mg/L. In cases where the MIC of an organism is […]0.05 mg/L the MIC is repeated using a concentration range of 0.5-0.0005 mg/L. MIC tests in YAG medium have more clear-cut endpoints and have slightly lower MICS than those performed in RPMI medium.
(§6) The following organisms were tested: Aspergillus fumigatus AF293 and Aspergillus fumigatus AF210, Aspergillus niger, Aspergillus terreus, Aspergillus favus, Candida albicans, Candida krusei, Candida tropicalis, Candida glabrata, Candida parapsilosis, Trichophyton rubrum, Trichophyton mentagrophytes, Scedosporium prolificans, Scedosporium apiospermum, Absidia corymbifera, Fusarium solani.

[1] = tested on: Aspergillus fumigatus AF293; assay: MIC, YAG medium, Aspergillus fumigatus AF293; details: YAG medium; for MIC: Aspergillus fumigatus, AF293, read-out: MIC A Fum. 293
Method: as §1, §2, §3, §4, §5, §6

Aspergillus niger = assay: MIC, YAG medium, Aspergillus niger; details: YAG medium; for MIC: Aspergillus niger
Method: as §1, §2, §3, §4, §5, §6

Aspergillus terreus = assay: MIC, YAG medium, Aspergillus terreus; details: YAG medium; for MIC: Aspergillus terreus
Method: as §1, §2, §3, §4, §5, §6

[2] = tested on: Aspergillus fumigatus AF210; assay: MIC, YAG medium, Aspergillus fumigatus AF210; details: YAG medium; for MIC: Aspergillus fumigatus, AF210, read-out: MIC A Fum. 210
Method: as §1, §2, §3, §4, §5, §6

| Molecule | MIC (Aspergillus flavus; read-out: MIC A Flavus 01) [µg/mL] | MIC [1] [µg/mL] | MIC (Aspergillus niger; read-out: MIC A Niger 1) [µg/mL] | MIC (Aspergillus terreus; read-out: MIC A Terreus 4) [µg/mL] | MIC [2] [µg/mL] | also measured |
| --- | --- | --- | --- | --- | --- | --- |
| Cc1c(NC(=O)C(=O)c2c(-c3ccccc3)cc3ccccn23)c(=O)n(-c2ccccc2)n1C [Example 303, N-(1,5-Dimethyl-3-oxo-2-phenyl-2,3-dihydro-1-pyrazol-4-yl)-2-oxo-2-(2-phenyl-indolizin-3-yl)-acetamide] | – | – | – | – | – | MIC A Flavus (Aspergillus flavus): 50 µg/mL (≈ 111 µM); MIC A Fum. 293 [1]: 50 µg/mL (≈ 111 µM); MIC A Niger (Aspergillus niger): 50 µg/mL (≈ 111 µM); MIC A Terreus (Aspergillus terreus): 25 µg/mL (≈ 55.5 µM); MIC A Fum. 210 [2]: 50 µg/mL (≈ 111 µM) |
| CC(C)NC(=O)C(=O)c1c(-c2ccccc2)cc2ccccn12 [Example 180, N-Isopropyl-2-oxo-2-(2-phenyl-indolizin-3-yl)-acetamide] | > 50 | 6.25 (≈ 20.4 µM) | 3.1 (≈ 10.1 µM) | 6.25 (≈ 20.4 µM) | 6.25 (≈ 20.4 µM) | – |
| O=C(C(=O)N1CCCCCC1)c1c(-c2ccccc2)cc2ccccn12 [Example 301, 1-Azepan-1-yl-2-(2-phenyl-indolizin-3-yl)-ethane-1,2-dione] | – | 50 (≈ 144 µM) | – | – | 25 (≈ 72.2 µM) | MIC (Aspergillus flavus; read-out: MIC A Flavus): 50 µg/mL (≈ 144 µM); MIC (Aspergillus niger; read-out: MIC A Niger): 25 µg/mL (≈ 72.2 µM); MIC (Aspergillus terreus; read-out: MIC A Terreus): 12.5 µg/mL (≈ 36.1 µM) |
| O=C(Nc1ccncc1)C(=O)c1c(-c2ccccc2)cc2ccccn12 [Example 158, 2-Oxo-2-(2-phenyl-indolizin-3-yl)-N-pyridin-4-yl-acetamide] | > 50 | > 50 | 0.4 (≈ 1.17 µM) | > 50 | > 50 | – |
| COc1ccc(NC(=O)C(=O)c2c(-c3ccccc3)cc3cccc(C)n23)cc1 [Example 237, N-(4-Methoxy-phenyl)-2-(5-methyl-2-phenyl-indolizin-3-yl)-2-oxo-acetamide] | 1.6 (≈ 4.16 µM) | 1.6 (≈ 4.16 µM) | 0.8 (≈ 2.08 µM) | 0.4 (≈ 1.04 µM) | 3.1 (≈ 8.06 µM) | – |
| Cc1ccc(NC(=O)C(=O)c2c(-c3ccccc3)cc3ccc(C)cn23)cc1 [Example 190, 2-(6-Methyl-2-phenyl-indolizin-3-yl)-2-oxo-N-p-tolyl-acetamide] | 0.4 (≈ 1.09 µM) | 1.6 (≈ 4.34 µM) | 0.4 (≈ 1.09 µM) | 0.1 (≈ 0.271 µM) | 1.6 (≈ 4.34 µM) | – |
| CNC(=O)C(=O)c1c(-c2ccccc2)cc2ccccn12 [Example 179, N-Methyl-2-oxo-2-(2-phenyl-indolizin-3-yl)-acetamide] | 25 (≈ 89.8 µM) | 12.5 (≈ 44.9 µM) | > 50 | 6.25 (≈ 22.5 µM) | 12.5 (≈ 44.9 µM) | – |
| Cc1ccc(NC(=O)C(=O)c2c(-c3ccco3)cc3ccccn23)cc1 [Example 168, 2-(2-Furan-2-yl-indolizin-3-yl)-2-oxo-N-p-tolyl-acetamide] | 0.4 (≈ 1.16 µM) | 1.6 (≈ 4.65 µM) | 0.4 (≈ 1.16 µM) | 1.6 (≈ 4.65 µM) | 3.1 (≈ 9 µM) | – |
| CN(C)C(=O)c1ccc(NC(=O)C(=O)c2c(-c3ccccc3)cc3ccccn23)cc1 [Example 160, N,N-Dimethyl-4-[2-oxo-2-(2-phenyl-indolizin-3-yl)-acetylamino]-benzamide] | 3.1 (≈ 7.53 µM) | 50 (≈ 122 µM) | 0.4 (≈ 0.972 µM) | 50 (≈ 122 µM) | 50 (≈ 122 µM) | – |
| CN(C)c1ccc(NC(=O)C(=O)c2c(-c3cccnc3)cc3ccccn23)cc1 [Example 230, N-(4-Dimethylamino-phenyl)-2-oxo-2-(2-pyridin-3-yl-indolizin-3-yl)-acetamide] | 0.1 (≈ 0.26 µM) | > 50 | 3.1 (≈ 8.06 µM) | 0.2 (≈ 0.52 µM) | > 50 | – |
| O=C(Nc1ccccc1F)C(=O)c1c(-c2cccnc2)cc2ccccn12 [Example 211, N-(2-Fluoro-phenyl)-2-oxo-2-(2-pyridin-3-yl-indolizin-3-yl)-acetamide] | 0.4 (≈ 1.11 µM) | 6.25 (≈ 17.4 µM) | 1.6 (≈ 4.45 µM) | 0.2 (≈ 0.557 µM) | 6.25 (≈ 17.4 µM) | – |
| COc1ccc(NC(=O)C(=O)c2c(-c3ccccn3)cc3ccccn23)c(OC)c1 [Example 176, N-(2,4-Dimethoxy-phenyl)-2-oxo-2-(2-pyridin-2-yl-indolizin-3-yl)-acetamide] | > 50 | > 50 | 3.1 (≈ 7.72 µM) | > 50 | > 50 | – |
| CN(C)C(=O)C(=O)c1c(-c2ccccc2)cc2ccccn12 [Example 183, N,N-Dimethyl-2-oxo-2-(2-phenyl-indolizin-3-yl)-acetamide] | > 50 | > 50 | > 50 | 12.5 (≈ 42.8 µM) | 25 (≈ 85.5 µM) | – |
| N-(3-Methyl-3H-benzoimidazol-5-yl)-2-oxo-2-(2-phenyl-indolizin-3-yl)-acetamide and N-(1-Methyl-1H-benzoimidazol-5-yl)-2-oxo-2-(2-phenyl-indolizin-3-yl)-acetamide [Example 241] | – | – | – | – | – | MIC A Flavus 01 (Aspergillus flavus): 0.8 µg/mL; MIC A Fum. 293 [1]: 12.5 µg/mL; MIC A Niger 1 (Aspergillus niger): 12.5 µg/mL; MIC A Terreus 4 (Aspergillus terreus): 12.5 µg/mL; MIC A Fum. 210 [2]: 12.5 µg/mL |
| COc1ccc(NC(=O)C(=O)c2c(-c3ccccc3)cc3cccc(C)n23)cn1 [Example 189, N-(6-Methoxy-pyridin-3-yl)-2-(5-methyl-2-phenyl-indolizin-3-yl)-2-oxo-acetamide] | 3.1 (≈ 8.04 µM) | 3.1 (≈ 8.04 µM) | 0.8 (≈ 2.08 µM) | 1.6 (≈ 4.15 µM) | 3.1 (≈ 8.04 µM) | – |
| CC(C)(C#N)c1ccc(NC(=O)C(=O)c2c(-c3cccnc3)cc3ccccn23)cc1 [Example 225, N-[4-(Cyano-dimethyl-methyl)-phenyl]-2-oxo-2-(2-pyridin-3-yl-indolizin-3-yl)-acetamide] | 0.1 (≈ 0.245 µM) | 3.1 (≈ 7.59 µM) | 3.1 (≈ 7.59 µM) | 0.1 (≈ 0.245 µM) | 3.1 (≈ 7.59 µM) | – |
| Cc1ccc(NC(=O)C(=O)c2c(-c3ccccn3)cc3ccccn23)cc1 [Example 175, 2-Oxo-2-(2-pyridin-2-yl-indolizin-3-yl)-N-p-tolyl-acetamide] | > 50 | > 50 | > 50 | 3.1 (≈ 8.72 µM) | 3.1 (≈ 8.72 µM) | – |
| O=C(Nc1ccc(Cl)cc1)C(=O)c1c(-c2ccc(F)cc2)cc2ccccn12 [Example 210, N-(4-Chloro-phenyl)-2-[2-(4-fluoro-phenyl)-indolizin-3-yl]-2-oxo-acetamide] | 0.05 (≈ 0.127 µM) | > 50 | 0.05 (≈ 0.127 µM) | 0.05 (≈ 0.127 µM) | > 50 | – |
| O=C(Nc1ccc(F)cc1)C(=O)c1c(-c2cccnc2)cc2ccccn12 [Example 198, N-(4-Fluoro-phenyl)-2-oxo-2-(2-pyridin-3-yl-indolizin-3-yl)-acetamide] | 0.8 (≈ 2.23 µM) | 3.1 (≈ 8.63 µM) | 1.6 (≈ 4.45 µM) | 0.8 (≈ 2.23 µM) | > 50 | – |
| CON=C(C(=O)Nc1ccc(OC)cc1)c1c(-c2ccccc2)cc2ccccn12 (mixture of isomers) [Example 298, 2-[(E/Z)-Methoxyimino]-N-(4-methoxy-phenyl)-2-(2-phenyl-indolizin-3-yl)-acetamide] | – | – | – | – | – | MIC A Flavus 01 (Aspergillus flavus): 0.1 µg/mL; MIC A Fum. 293 [1]: 0.8 µg/mL; MIC A Niger 1 (Aspergillus niger): 0.2 µg/mL; MIC A Terreus 4 (Aspergillus terreus): 0.2 µg/mL; MIC A Fum. 210 [2]: 0.8 µg/mL |
| O=C(NCc1ccccc1)C(=O)c1c(-c2ccccc2)cc2ccccn12 [Example 182, N-Benzyl-2-oxo-2-(2-phenyl-indolizin-3-yl)-acetamide] | > 50 | > 50 | > 50 | 0.2 (≈ 0.564 µM) | > 50 | – |
